Reference: patent publication USRE47302E1 (ONYX THERAPEUTICS INC., priority 2013, dated 2019)
Values after ≈ are worked out from the molar mass of the structure shown. Where two headings read alike, the source gives them in different places.

How the values were obtained:
Solubility pH 7 = settings: pH 7, aqueous buffer
[1] = target: T1, proteasome subunit β5 (beta5) (Homo sapiens, UniProt P28074); assay: Proteasome active-site ELISA (ProCISE), beta5, MOLT-4 lysate; assay type: biochemical; settings: MOLT4 lysate, human, 1 h continuous treatment, 25° C.
T1 construct: Lysate from the human acute lymphoblastic leukemia cell line, MOLT-4; endogenous in cells; host or cells: MOLT-4
Experimental: (§1) Test compounds were serially diluted in DMSO at 100× concentration, then diluted to 10× in aqueous hypotonic lysis buffer. Lysate from the human acute lymphoblastic leukemia cell line, MOLT-4, was treated for 1 hour at 25° C. with compound at a final 1× concentration. […] Following, lysate was denatured in guanidine hydrochloride, and subunits bound to probe were isolated with streptavidin-conjugated sepharose beads. Individual subunits (e.g., β5, LMP7, LMP2, MECL-1) were probed with subunit-specific primary antibodies, followed by HRP-conjugated secondary antibodies. A chemiluminescent substrate was used to generate signal associated with HRP binding, which was detected on a plate reader. Luminescent signal was normalized to protein content, then, percent activity calculated relative to DMSO-treated controls to generate IC50 curves.

[2] = target: T2, immunoproteasome subunit LMP7 (Homo sapiens, UniProt P28062); assay: Proteasome active-site ELISA (ProCISE), LMP7, MOLT-4 lysate; assay type: biochemical
T2 construct: Lysate from the human acute lymphoblastic leukemia cell line, MOLT-4; endogenous in cells; host or cells: MOLT-4
Experimental: as §1

[3] = MOLT4 lysate, 1 h continuous treatment, 25° C.
[4] = read-out: ProCISE beta5 MOLT4 lysate Hu 1 h CONT: IC50
[5] = read-out: ProCISE LMP7 MOLT4 lysate Hu 1 h CONT: IC50, 1 h continuous treatment, 25° C.

Row | solubility (Solubility pH 7) [µg/mL] | IC50 [1] [nM] | IC50 [2, 3] [nM] | IC50 [1, 4] [nM] | IC50 [2, 5] [nM] | SMILES
1 | 1410 (≈ 2.42 mM) | 2250 | 132 | – | – | COc1ccc(C[C@H](NC(=O)[C@@H](C)NC(=O)[C@H]2CC[C@@](C)(O)CC2)C(=O)N[C@@H](CC2=CCCC2)C(=O)[C@@]2(C)CO2)cc1 [Compound C-1088, (1s,4S)-N-((R)-1-(((S)-1-(((S)-3-(cyclopent-1-en-1-yl)-1-((R)-2-methyloxiran-2-yl)-1-oxopropan-2-yl)amino)-3-(4-methoxyphenyl)-1-oxopropan-2-yl)amino)-1-oxopropan-2-yl)-4-hydroxy-4-methylcyclohexanecarboxamide]
2 | 54.4 (≈ 0.093 mM) | 402 | 46.2 | – | – | CCc1ccc(C[C@H](NC(=O)[C@H](C)NC(=O)CN2CCOCC2)C(=O)N[C@@H](CC2=CCCC2)C(=O)[C@@]2(C)CO2)cc1O [Compound C-1136, (S)-N-((S)-3-(cyclopent-1-en-1-yl)-1-((R)-2-methyloxiran-2-yl)-1-oxopropan-2-yl)-3-(4-ethyl-3-hydroxyphenyl)-2-((S)-2-(2-morpholinoacetamido)propanamido)propanamide]
3 | 960 (≈ 1.64 mM) | 284 | 49.8 | – | – | CC[C@H](NC(=O)CN1CCOCC1)C(=O)N[C@@H](Cc1ccc(OC)cc1)C(=O)N[C@@H](CC1CCCC1)C(=O)[C@@]1(C)CO1 [Compound C-1106, (S)-N-((S)-1-(((S)-3-cyclopentyl-1-((R)-2-methyloxiran-2-yl)-1-oxopropan-2-yl)amino)-3-(4-methoxyphenyl)-1-oxopropan-2-yl)-2-(2-morpholinoacetamido)butanamide]
4 | 917 (≈ 1.48 mM) | 868 | 25.2 | – | – | C[C@@H](NC(=O)[C@H]1CC[C@H](O)CC1)C(=O)N[C@@H](Cc1ccc(S(C)(=O)=O)cc1)C(=O)N[C@@H](CC1=CCCC1)C(=O)[C@@]1(C)CO1 [Compound C-1096, (1r,4R)-N-((R)-1-(((S)-1-(((S)-3-(cyclopent-1-en-1-yl)-1-((R)-2-methyloxiran-2-yl)-1-oxopropan-2-yl)amino)-3-(4-(methylsulfonyl)phenyl)-1-oxopropan-2-yl)amino)-1-oxopropan-2-yl)-4-hydroxycyclohexanecarboxamide]
5 | 4250 (≈ 7.13 mM) | – | – | 678 | 24.7 | COc1ccc(C[C@H](NC(=O)[C@@H](C)NC(=O)[C@H]2CC[C@H](O)CC2)C(=O)N[C@@H](Cc2ccc(O)cc2)C(=O)[C@@]2(C)CO2)cc1 [Compound C-1191]
6 | 8190 (≈ 14 mM) | 1840 | 158 | – | – | COc1ccc(C[C@H](NC(=O)[C@H](C)NC(=O)CN2CCOCC2)C(=O)N[C@@H](CC2=CCCC2)C(=O)[C@@]2(C)CO2)cc1O [Compound C-1085, (S)-N-((S)-3-(cyclopent-1-en-1-yl)-1-((R)-2-methyloxiran-2-yl)-1-oxopropan-2-yl)-3-(3-hydroxy-4-methoxyphenyl)-2-((S)-2-(2-morpholinoacetamido)propanamido)propanamide]
7 | 3820 (≈ 6.2 mM) | 4090 | 181 | – | – | COc1ccc(C[C@H](NC(=O)[C@H](CO)NC(=O)CN2CCOCC2)C(=O)N[C@@H](CC2=CCCCC2)C(=O)[C@@]2(C)CO2)cc1O [Compound C-1109, (S)-N-((S)-3-(Cyclohex-1-en-1-yl)-1-((R)-2-methyloxiran-2-yl)-1-oxopropan-2-yl)-2-((S)-3-hydroxy-2-(2-morpholinoacetamido)propanamido)-3-(3-hydroxy-4-methoxyphenyl)propanamide]
8 | 6130 (≈ 10.2 mM) | 3530 | 86.6 | – | – | COc1ccc([C@@H](O)[C@H](NC(=O)[C@H](C)NC(=O)CN2CCOCC2)C(=O)N[C@@H](CC2=CCCCC2)C(=O)[C@@]2(C)CO2)cc1 [Compound C-1082, (2S,3R)-N-((S)-3-(cyclohex-1-en-1-yl)-1-((R)-2-methyloxiran-2-yl)-1-oxopropan-2-yl)-3-hydroxy-3-(4-methoxyphenyl)-2-((S)-2-(2-morpholinoacetamido)propanamido)propanamide]
9 | 5690 (≈ 9.79 mM) | 3230 | 49.5 | – | – | C[C@@H](NC(=O)[C@H]1CC[C@H](O)CC1)C(=O)N[C@@H](Cc1ccc2[nH]cnc2c1)C(=O)N[C@@H](CC1CCCC1)C(=O)[C@@]1(C)CO1 [Compound C-1105, (1r,4R)-N-((R)-1-(((S)-3-(1H-benzo[d]imidazol-5-yl)-1-(((S)-3-cyclopentyl-1-((R)-2-methyloxiran-2-yl)-1-oxopropan-2-yl)amino)-1-oxopropan-2-yl)amino)-1-oxopropan-2-yl)-4-hydroxycyclohexanecarboxamide]
10 | 130 (≈ 0.225 mM) | – | – | 43.4 | 10.5 | COc1ccc(C[C@H](NC(=O)[C@@H](C)NC(=O)[C@H]2CC[C@@H](O)CC2)C(=O)N[C@@H](Cc2ccccc2)C(=O)[C@@]2(C)CO2)cc1 [Compound C-1187]
11 | 7720 (≈ 12.5 mM) | 566 | 97.6 | – | – | C[C@H](NC(=O)CN1CCOCC1)C(=O)N[C@@H](Cc1ccc(S(C)(=O)=O)cc1)C(=O)N[C@@H](CC1=CCCC1)C(=O)[C@@]1(C)CO1 [Compound C-1125, (S)-N-((S)-3-(cyclopent-1-en-1-yl)-1-((R)-2-methyloxiran-2-yl)-1-oxopropan-2-yl)-3-(4-(methylsulfonyl)phenyl)-2-((S)-2-(2-morpholinoacetamido)propanamido)propanamide]
12 | 2660 (≈ 4.55 mM) | 1480 | 34.6 | – | – | COc1ccc(C[C@H](NC(=O)[C@@H](C)NC(=O)[C@H]2CC[C@H](O)CC2)C(=O)N[C@@H](CC2=CCCC2)C(=O)[C@@]2(C)CO2)cc1O [Compound C-1065, (1r,4R)-N-((R)-1-(((S)-1-(((S)-3-(cyclopent-1-en-1-yl)-1-((R)-2-methyloxiran-2-yl)-1-oxopropan-2-yl)amino)-3-(3-hydroxy-4-methoxyphenyl)-1-oxopropan-2-yl)amino)-1-oxopropan-2-yl)-4-hydroxycyclohexanecarboxamide]
13 | 1860 (≈ 3.13 mM) | 289 | 31 | – | – | COc1ccc(C[C@H](NC(=O)[C@H](CC#N)NC(=O)CN2CCOCC2)C(=O)N[C@@H](CC2=CCCC2)C(=O)[C@@]2(C)CO2)cc1 [Compound C-1135, (S)-3-Cyano-N-((S)-1-(((S)-3-(cyclopent-1-en-1-yl)-1-((R)-2-methyloxiran-2-yl)-1-oxopropan-2-yl)amino)-3-(4-methoxyphenyl)-1-oxopropan-2-yl)-2-(2-morpholinoacetamido)propanamide]
14 | 8230 (≈ 13.3 mM) | 2940 | 50.6 | – | – | COc1ccc([C@@H](O)[C@H](NC(=O)[C@H](CO)NC(=O)CN2CCOCC2)C(=O)N[C@@H](CC2=CCCCC2)C(=O)[C@@]2(C)CO2)cc1 [Compound C-1116, (2S,3R)-N-((S)-3-(Cyclohex-1-en-1-yl)-1-((R)-2-methyloxiran-2-yl)-1-oxopropan-2-yl)-3-hydroxy-2-((S)-3-hydroxy-2-(2-morpholinoacetamido)propanamido)-3-(4-methoxyphenyl)propanamide]
15 | 2350 (≈ 3.75 mM) | 409 | 45.3 | – | – | COc1ccc(C[C@H](NC(=O)[C@@H](NC(=O)CN2CCOCC2)C2COC2)C(=O)N[C@@H](CC2=CCCCC2)C(=O)[C@@]2(C)CO2)cc1 [Compound C-1138, (S)-N-((S)-3-(Cyclohex-1-en-1-yl)-1-((R)-2-methyloxiran-2-yl)-1-oxopropan-2-yl)-3-(4-methoxyphenyl)-2-((S)-2-(2-morpholinoacetamido)-2-(oxetan-3-yl)acetamido)propanamide]
16 | 1650 (≈ 2.95 mM) | 788 | 92.1 | – | – | COc1ccc(C[C@H](NC(=O)[C@@H](C)NC(=O)[C@H]2CC[C@@H](O)C2)C(=O)N[C@@H](CC2CCCC2)C(=O)[C@@]2(C)CO2)cc1 [Compound C-1075, (1S,3R)-N-((R)-1-(((S)-1-(((S)-3-cyclopentyl-1-((R)-2-methyloxiran-2-yl)-1-oxopropan-2-yl)amino)-3-(4-methoxyphenyl)-1-oxopropan-2-yl)amino)-1-oxopropan-2-yl)-3-hydroxycyclopentanecarboxamide]
17 | 7070 (≈ 12.1 mM) | 561 | 40.3 | – | – | COc1ccc([C@@H](O)[C@H](NC(=O)[C@H](C)NC(=O)CN2CCOCC2)C(=O)N[C@@H](CC2=CCCC2)C(=O)[C@@]2(C)CO2)cc1 [Compound C-1083, (2S,3R)-N-((S)-3-(cyclopent-1-en-1-yl)-1-((R)-2-methyloxiran-2-yl)-1-oxopropan-2-yl)-3-hydroxy-3-(4-methoxyphenyl)-2-((S)-2-(2-morpholinoacetamido)propanamido)propanamide]
18 | 2050 (≈ 3.49 mM) | 2230 | 34.6 | – | – | COc1ccc([C@@H](O)[C@H](NC(=O)[C@@H](C)NC(=O)[C@H]2CC[C@H](O)CC2)C(=O)N[C@@H](CC2CCCC2)C(=O)[C@@]2(C)CO2)cc1 [Compound C-1079, (1r,4R)-N-((R)-1-(((2S,3R)-1-(((S)-3-cyclopentyl-1-((R)-2-methyloxiran-2-yl)-1-oxopropan-2-yl)amino)-3-hydroxy-3-(4-methoxyphenyl)-1-oxopropan-2-yl)amino)-1-oxopropan-2-yl)-4-hydroxycyclohexanecarboxamide]
19 | 22.7 (≈ 0.0413 mM) | – | – | 476 | 58.5 | COc1ccc(C[C@H](NC(=O)[C@@H](C)NC(=O)C2CCCC2)C(=O)N[C@@H](Cc2ccccc2)C(=O)[C@@]2(C)CO2)cc1 [Compound C-1189]
